Reference: PubChem BioAssay (NCI)
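Five concentrations, 48 hours, 96-well plates. The concentration for full growth arrest is given as TGI.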

Experiments:
Test in all cases: inhibition of tumour cell growth, NCI panel, 48 h
SW-620 colon = tested on: SW-620 colon
HS 578T breast = tested on: HS 578T breast
SK-MEL-5 melanoma = tested on: SK-MEL-5 melanoma
SNB-19 CNS = tested on: SNB-19 CNS
SK-MEL-28 melanoma = tested on: SK-MEL-28 melanoma
MDA-N = tested on: MDA-N
RXF 393 renal = tested on: RXF 393 renal
OVCAR-3 ovarian = tested on: OVCAR-3 ovarian
MDA-MB-231 breast = tested on: MDA-MB-231 breast
DU-145 prostate = tested on: DU-145 prostate
MCF7 breast = tested on: MCF7 breast
NCI-H460 lung = tested on: NCI-H460 lung
HCC-2998 colon = tested on: HCC-2998 colon
RPMI-8226 leukemia = tested on: RPMI-8226 leukemia
COLO 205 colon = tested on: COLO 205 colon
MDA-MB-435 = tested on: MDA-MB-435
NCI-H23 lung = tested on: NCI-H23 lung
OVCAR-5 ovarian = tested on: OVCAR-5 ovarian
OVCAR-8 ovarian = tested on: OVCAR-8 ovarian
K-562 leukemia = tested on: K-562 leukemia
HT29 colon = tested on: HT29 colon
PC-3 prostate = tested on: PC-3 prostate
T-47D breast = tested on: T-47D breast
SF-268 CNS = tested on: SF-268 CNS
SNB-75 CNS = tested on: SNB-75 CNS
BT-549 breast = tested on: BT-549 breast
IGROV1 ovarian = tested on: IGROV1 ovarian
HOP-62 NSCLC = tested on: HOP-62 NSCLC
HL-60(TB) leukemia = tested on: HL-60(TB) leukemia
NCI-H226 lung = tested on: NCI-H226 lung
MALME-3M melanoma = tested on: MALME-3M melanoma
SK-MEL-2 melanoma = tested on: SK-MEL-2 melanoma
NCI/ADR-RES ovarian = tested on: NCI/ADR-RES ovarian
ACHN renal = tested on: ACHN renal
KM12 colon = tested on: KM12 colon
TK-10 renal = tested on: TK-10 renal
U251 CNS = tested on: U251 CNS
M14 melanoma = tested on: M14 melanoma
HCT-15 colon = tested on: HCT-15 colon
CCRF-CEM leukemia = tested on: CCRF-CEM leukemia
SF-295 CNS = tested on: SF-295 CNS
SR leukemia = tested on: SR leukemia
UO-31 renal = tested on: UO-31 renal
786-0 renal = tested on: 786-0 renal
A549 NSCLC = tested on: A549 NSCLC
NCI-H522 lung = tested on: NCI-H522 lung
SN12C renal = tested on: SN12C renal
LOX IMVI melanoma = tested on: LOX IMVI melanoma
UACC-257 melanoma = tested on: UACC-257 melanoma
UACC-62 melanoma = tested on: UACC-62 melanoma
CAKI-1 renal = tested on: CAKI-1 renal
MOLT-4 leukemia = tested on: MOLT-4 leukemia
OVCAR-4 ovarian = tested on: OVCAR-4 ovarian
SK-OV-3 ovarian = tested on: SK-OV-3 ovarian
A498 renal = tested on: A498 renal
EKVX NSCLC = tested on: EKVX NSCLC
HOP-92 NSCLC = tested on: HOP-92 NSCLC
HCT-116 colon = tested on: HCT-116 colon
SF-539 CNS = tested on: SF-539 CNS

SMILES: CCC1=NC(N/N=C/c2ccccc2O)=N/C1=C\c1ccccc1O
- TGI (SW-620 colon): > 100 µM
- TGI (HS 578T breast): > 83.7 µM
- TGI (SK-MEL-5 melanoma): > 100 µM
- TGI (SNB-19 CNS): > 100 µM
- TGI (SK-MEL-28 melanoma): > 100 µM
- TGI (MDA-N): > 100 µM
- TGI (RXF 393 renal): > 73.4 µM
- TGI (OVCAR-3 ovarian): 12.6 µM
- TGI (MDA-MB-231 breast): > 100 µM
- TGI (DU-145 prostate): > 64.7 µM
- TGI (MCF7 breast): > 76.1 µM
- TGI (NCI-H460 lung): 18.7 µM
- TGI (HCC-2998 colon): 36.4 µM
- TGI (RPMI-8226 leukemia): 53.8 µM
- TGI (COLO 205 colon): > 74.8 µM
- TGI (MDA-MB-435): > 81.2 µM
- TGI (NCI-H23 lung): > 74.7 µM
- TGI (OVCAR-5 ovarian): > 100 µM
- TGI (OVCAR-8 ovarian): > 69.2 µM
- TGI (K-562 leukemia): > 100 µM
- TGI (HT29 colon): 37.5 µM
- TGI (PC-3 prostate): > 100 µM
- TGI (T-47D breast): > 76.5 µM
- TGI (SF-268 CNS): > 66.9 µM
- TGI (SNB-75 CNS): > 100 µM
- TGI (BT-549 breast): > 53.7 µM
- TGI (IGROV1 ovarian): 56.9 µM
- TGI (HOP-62 NSCLC): 39.2 µM
- TGI (HL-60(TB) leukemia): 10.6 µM
- TGI (NCI-H226 lung): > 69 µM
- TGI (MALME-3M melanoma): 85.4 µM
- TGI (SK-MEL-2 melanoma): 66.2 µM
- TGI (NCI/ADR-RES ovarian): 24 µM
- TGI (ACHN renal): 29.5 µM
- TGI (KM12 colon): > 66.1 µM
- TGI (TK-10 renal): > 54.6 µM
- TGI (U251 CNS): > 100 µM
- TGI (M14 melanoma): 51.9 µM
- TGI (HCT-15 colon): 12.6 µM
- TGI (CCRF-CEM leukemia): > 100 µM
- TGI (SF-295 CNS): > 100 µM
- TGI (SR leukemia): > 100 µM
- TGI (UO-31 renal): 20.4 µM
- TGI (786-0 renal): > 72.1 µM
- TGI (A549 NSCLC): > 100 µM
- TGI (NCI-H522 lung): 21 µM
- TGI (SN12C renal): > 83 µM
- TGI (LOX IMVI melanoma): > 42.9 µM
- TGI (UACC-257 melanoma): > 100 µM
- TGI (UACC-62 melanoma): 48.4 µM
- TGI (CAKI-1 renal): > 100 µM
- TGI (MOLT-4 leukemia): > 61.5 µM
- TGI (OVCAR-4 ovarian): > 31.3 µM
- TGI (SK-OV-3 ovarian): 76.2 µM
- TGI (A498 renal): 85.4 µM
- TGI (EKVX NSCLC): > 100 µM
- TGI (HOP-92 NSCLC): > 84 µM
- TGI (HCT-116 colon): 39.8 µM

SMILES: COc1nc(C#CCCCC#N)nc(OC)n1
- TGI (SW-620 colon): 32.5 µM
- TGI (HS 578T breast): > 100 µM
- TGI (SK-MEL-5 melanoma): 28.2 µM
- TGI (SNB-19 CNS): > 100 µM
- TGI (SK-MEL-28 melanoma): 34.8 µM
- TGI (MDA-N): 56.1 µM
- TGI (RXF 393 renal): 30.9 µM
- TGI (OVCAR-3 ovarian): 28 µM
- TGI (MDA-MB-231 breast): 29.3 µM
- TGI (DU-145 prostate): 23.3 µM
- TGI (MCF7 breast): 22.1 µM
- TGI (NCI-H460 lung): 89.1 µM
- TGI (COLO 205 colon): > 100 µM
- TGI (MDA-MB-435): 27.7 µM
- TGI (NCI-H23 lung): 31.4 µM
- TGI (OVCAR-5 ovarian): 27.8 µM
- TGI (OVCAR-8 ovarian): 61.4 µM
- TGI (K-562 leukemia): > 100 µM
- TGI (HT29 colon): > 100 µM
- TGI (PC-3 prostate): 30.9 µM
- TGI (T-47D breast): > 100 µM
- TGI (SF-268 CNS): 94.4 µM
- TGI (SNB-75 CNS): 75.7 µM
- TGI (BT-549 breast): 33.1 µM
- TGI (IGROV1 ovarian): 41.8 µM
- TGI (HOP-62 NSCLC): 48.7 µM
- TGI (HL-60(TB) leukemia): 71.6 µM
- TGI (MALME-3M melanoma): 28.5 µM
- TGI (SK-MEL-2 melanoma): 32.2 µM
- TGI (SF-539 CNS): 53.7 µM
- TGI (NCI/ADR-RES ovarian): > 100 µM
- TGI (ACHN renal): 21.8 µM
- TGI (KM12 colon): 36.3 µM
- TGI (TK-10 renal): 37.7 µM
- TGI (U251 CNS): 26.7 µM
- TGI (M14 melanoma): 47.8 µM
- TGI (HCT-15 colon): 18.3 µM
- TGI (SF-295 CNS): 84.6 µM
- TGI (SR leukemia): > 100 µM
- TGI (UO-31 renal): 24.9 µM
- TGI (786-0 renal): 41.7 µM
- TGI (A549 NSCLC): 31.9 µM
- TGI (NCI-H522 lung): 29.4 µM
- TGI (SN12C renal): 36.5 µM
- TGI (LOX IMVI melanoma): 14.2 µM
- TGI (UACC-257 melanoma): 45.2 µM
- TGI (UACC-62 melanoma): 22.8 µM
- TGI (CAKI-1 renal): 27.2 µM
- TGI (MOLT-4 leukemia): > 100 µM
- TGI (OVCAR-4 ovarian): 17.9 µM
- TGI (SK-OV-3 ovarian): > 100 µM
- TGI (A498 renal): 37.6 µM
- TGI (EKVX NSCLC): 39.2 µM
- TGI (HCT-116 colon): 41.3 µM
